According to patent publication US6403299B1, “DEAH-box proteins” (Aventis Research & Technologies GmbH & Co. KG, priority 1995, dated 2002):
pEC50, pIC50: −log10 of the molar value. Like-named read-outs stand apart in the source and are kept apart here.

Experiments:
Assay type in all cases: cell-based, mouse
A20R cells [1] = assay: Proliferation test 2 (3H-thymidine incorporation), A20R cells
Procedure: (§1) 4×10^3 cells were pipetted into a volume of 100 μl of Iscove medium in 96-well round-bottom microtiter plates (Nunc). Test substances were applied in twice the concentration starting from the desired test concentration and 100 μl of this solution was pipetted into the cells. The plates were incubated for 48 hours at 37° C. and 10% CO2. The proliferation was determined by radiolabeling the DNA of dividing cells. To do this, after the incubation time 25 μl of ^3H-thymidine (10 μCi/ml; specific activity 29 Ci/mmol; Amersham) was added to each well and the mixture was incubated for a further 16 hours. To evaluate the test, the plates were harvested on glass fiber filters (Pharmacia) by means of a cell harvester (Skatron), unincorporated ^3H-thymidine being collected in separate waste flasks, and only cellular, DNA-bound radioactivity being measured. The filters were heat-sealed in plastic bags and after addition of 10 ml of scintillator (Pharmacia) sealed in counting cassettes for measurement. Measurement was carried out in a beta-counter (beta-plate system 1206 from Wallac). As indicated under Test 1, the alteration in proliferation of the test substances was calculated against the respective positive controls.
(§2) Antiproliferative substances known from the literature were tested at different concentrations (as described in proliferation test 2) for their antiproliferative properties on A20R cells and A20.2J.
(§3) The function of MDR proteins as secretory pumps can be inhibited by calcium channel blockers, which leads to an accumulation of the substance in the cell. Calcium channel blockers known from the literature and also MDR-associated substances were therefore added to both cell lines in order to check whether the resistant line overexpressed MDR proteins.
(§4) The same test mixture was chosen in order to check whether A77 1726 is an MDR-transported molecule. Numbers are % inhibition of proliferation.

A20R cells [2] = assay: Proliferation test 1 (cell counting, Eosin staining), A20R cells
Procedure: Every 2nd or 3rd day, the cells were passaged in fresh medium to which the same concentration of A77 1726 was added. After culturing for 5 days, growth of the cells and a low dying-off rate (maximum 30% dead cells) was detectable, so the concentration of A77 1726 was increased stepwise. If the proliferation of the cells stagnated, the concentration of the last passage was used. […] 5×10^5 cells were incubated in 5 ml of Iscove medium in 6-well plates (Greiner) for 48 hours at 37° C. and 10% CO2. One well was set up as a positive reference value: for […]: cells in Iscove medium+100 μM A77 1726 Test substances in various concentrations were pipetted into the cells in the remaining wells. After the incubation time, the cells were resuspended in the well, and 100 μl of cell suspension were taken and diluted in 1% strength Eosin solution (1 g of Eosin yellowish from Riedel de Häen dissolved in 100 ml of sterile isotonic saline solution). The cells were counted in a Neubauer counting chamber and the fraction of dead cells (stained by Eosin) determined. The substance-induced alteration of proliferation was calculated relative to the respective positive control.

A20.2J cells [3] = assay: Proliferation test 2 (3H-thymidine incorporation), A20.2J cells
Procedure: as §1, §2, §3, §4

A20.2J cells [4] = assay: Proliferation test 1 (cell counting, Eosin staining), A20.2J cells
Procedure: A20.2J is a subline of the mouse B-cell lymphoma A20 (ATCC TIB-208) and described as a fusion line in the ATCC for the cell line LS 102.9 (ATCC HB-97). […] The cells were easy to culture as a nonadherent-growing cell line. 5×10^5 cells were incubated in 5 ml of Iscove medium in 6-well plates (Greiner) for 48 hours at 37° C. and 10% CO2. One well was set up as a positive reference value: for A20.2J: cells in Iscove medium Test substances in various concentrations were pipetted into the cells in the remaining wells. After the incubation time, the cells were resuspended in the well, and 100 μl of cell suspension were taken and diluted in 1% strength Eosin solution (1 g of Eosin yellowish from Riedel de Häen dissolved in 100 ml of sterile isotonic saline solution). The cells were counted in a Neubauer counting chamber and the fraction of dead cells (stained by Eosin) determined. The substance-induced alteration of proliferation was calculated relative to the respective positive control.

In the case of `C/C(O)=C(\C#N)C(=O)Nc1ccc(C(F)(F)F)cc1` [A77 1726], the “% inhibition of proliferation” value (A20R cells [1]; A20R + 62.5 μM A77 1726, verapamil 0 nM) was 10.3%, the “transport by MDR proteins” value (A20R cells [1]; A20.2J and A20R cells, with verapamil 0-400 nM) was “not transported by MDR proteins” and the pIC50 (A20R cells [2]; Mus musculus, proliferation test 1, A77 1726 analogs) was 3.89. For the same molecule, the “% inhibition of proliferation” value (A20.2J cells [3]; A20.2J + 1.6 μM A77 1726, verapamil 0 nM) was 16.4%, the pIC50 (A20.2J cells [4]; Mus musculus, A20/2J, proliferation test 1, A77 1726 analogs, read-out: IC50 value of A20.2J) was 5.52 to 5.70 and the pIC50 (A20.2J cells [4]; Mus musculus, read-out: 50% inhibition of the proliferation of the cells, A20.2J) was 5.70.
For `Cc1c(-c2ccc(-c3ccccc3F)cc2)nc2ccc(F)cc2c1C(=O)[O-].[Na+]` [Brequinar Na^+ salt, brequinar], the “cross-resistance of A20R cells (growth behavior) compared with A20.2J” value (A20R cells [2]) was “cross-resistance”, the pIC50 (A20R cells [2]; proliferation test 1, brequinar) was 4.12 to 4.30 and the pIC50 (A20.2J cells [4]; proliferation test 1, brequinar, read-out: IC50 value of A20.2J) was 6.70.
With `N.N.[Cl][Pt][Cl]` [Cisplatin] the “% inhibition of A20R” value (A20R cells [1]; 10 μM) was 91.1% and the “% inhibition of A20.2J” value (A20.2J cells [3]; 10 μM) was 44.7%.
With `CN(Cc1cnc2nc(N)nc(N)c2n1)c1ccc(C(=O)N[C@@H](CCC(=O)O)C(=O)O)cc1` [Methotrexate] the inhibition at 0.15 µM (A20R cells [1]; Mus musculus; 0.15 μM) was 65.2% and the inhibition at 0.15 µM (A20.2J cells [3]; Mus musculus, A20/2J; 0.15 μM) was 75.9%.
`COc1c(C)c2c(c(O)c1C/C=C(\C)CCC(=O)O)C(=O)OC2` [Mycophenolic acid] showed an inhibition at 0.15 µM (A20R cells [1]; Mus musculus; 0.15 μM) of 76.8% and an inhibition at 0.15 µM (A20.2J cells [3]; Mus musculus, A20/2J; 0.15 μM) of 89.8%.
`COc1cccc2c1C(=O)c1c(O)c3c(c(O)c1C2=O)C[C@@](O)(C(C)=O)C[C@@H]3O[C@H]1C[C@H](N)[C@H](O)[C@H](C)O1` [daunorubicin] showed an inhibition at 0.3 µM (A20R cells [1]; Mus musculus, read-out: % inhibition of proliferation) of 6.8% and an inhibition at 0.3 µM (A20.2J cells [3]; Mus musculus, A20/2J, read-out: % inhibition of proliferation) of 10.7%.
`COc1cccc2c1C(=O)c1c(O)c3c(c(O)c1C2=O)C[C@@](O)(C(=O)CO)C[C@@H]3O[C@H]1C[C@H](N)[C@H](O)[C@H](C)O1` [doxorubicin] gave an inhibition at 0.3 µM (A20R cells [1]; Mus musculus; read-out: % inhibition of proliferation) of 9.1% and an inhibition at 0.3 µM (A20.2J cells [3]; Mus musculus, A20/2J; read-out: % inhibition of proliferation) of 2.7%.
In the case of `Cc1oncc1C(=O)Nc1ccc(C(F)(F)F)cc1` [leflunomide], the “times higher leflunomide concentrations tolerated by A20R than by A20.2J” value (A20R cells [2]; A20R versus A20.2J) was 30-40 times, the ED50 (A20R cells [2]; murine A20.2J cells resistant to high levels of leflunomide) was 130 μ and the pEC50 (A20R cells [2]; resistant subline A20R, read-out: ED50 (the source's name)) was 3.89. For the same molecule, the ED50 (A20.2J cells [4]; murine A20.2J cells) was 4 μ and the pEC50 (A20.2J cells [4]; original cell line A20.2J, read-out: ED50 (the source's name)) was 5.40.
In the case of Cyclosporin A, the “% inhibition of A20R” value (A20R cells [1]; 0.25 μM) was 77.5% and the “% inhibition of A20.2J” value (A20.2J cells [3]; 0.25 μM) was 69.9%.
